Values of other authors in publication PMC2760809 (Nucleic Acids Research, 2009).

Molecular target: many RNA molecules, including HIV TAR RNA and group I introns
Conditions: read-out: Kd of arginine for RNA molecules

N=C(N)NCCC[C@H](N)C(=O)O [Arginine]
Kd: > 2000 µM
